# Assay results as given in patent US20050152847A1, “Novel formulation” (priority 2002, published 2005).
# Counter-ions that a name gives are not always drawn.
# How the values were obtained:
# [1] = Concentration of aqueous solution iso-osmotic with serum/saline; format: physicochemical; settings: expected from number of molecules, not measured
# Text: We preferably select an excipient with a concentration of at least >5.5%, preferably >7%—compounds that could be regarded as weak osmolytic or non-osmolytic active compounds—teaching away from WO 00/36915. The selected concentration values are based upon the clinical results presented for lactose and mannitol. The physiological condition is pH 7.4 and 276 mOsm.
# The osmotic pressure is proportional to the concentration of the solute for nonelectrolytes. The osmotic pressures of solutions of different nonelectrolytes are proportional to the number of molecules in each solution. This means—when having the same amount in grams—a disaccharide will have about half the osmotic pressure as a monosaccharide, which could also be seen in table 1. This type of generalisations could not be used for electrolytes. All disaccharides (e.g. trehalose) would be expected to have an osmotic pressure corresponding to a solution of at least >7% and trisaccharides (e.g. melezitose, raffinose) needed higher concentration in order to be iso-osmotic with a saline solution. The carbohydrate myo-inositol would be expected to have a concentration of less than 5% for iso-osmolytic activity with saline.
# [2] = iso-osmotic with serum/saline; cited from earlier work
# [3] = cited from earlier work
# [4] = generally regarded; cited from earlier work
# [5] = cited from earlier work; remark: listed apart in the source
# stable asthma patients = settings: fifteen stable asthma patients; lactose dry powder alone; no dosage data given; cited from earlier work
Structure (SMILES),Concentration of aqueous solution iso-osmotic with serum (%) [2] [%],other results
O[C@H]1[C@H](O)[C@@H](O)[C@H](O)[C@@H](O)[C@H]1O [myo-inositol],,Expected concentration of solution iso-osmotic with saline [1]: less than 5%
O=C(CO)[C@@H](O)[C@H](O)[C@H](O)CO [Fructose],5.1,
OC[C@H]1O[C@@](CO)(O[C@H]2O[C@H](CO)[C@@H](O)[C@H](O)[C@H]2O)[C@@H](O)[C@@H]1O [Sucrose],9.3,Moisture sensitivity ([3]; submitted to humidity): very moisture sensitive
[Cl-].[Na+] [Sodium chloride],0.9,
"Cc1cc(C(C)(C)C)c(O)c(C)c1CC1=NCCN1.Cl [Oxymethazoline-HCl, reference compound]",4.9,
"CCN(CC)CC(=O)Nc1c(C)cccc1C [Lidocaine-HCl, reference compound]",4.4,
OC[C@@H](O)[C@@H](O)[C@H](O)[C@H](O)CO [Mannitol],5.1,
O=C[C@H](O)[C@@H](O)[C@@H](O)[C@H](O)CO [Galactose],4.9,
OC[C@@H](O)[C@H](O)[C@@H](O)CO [Xylitol],4.6,
OC[C@@H](O)[C@@H](O[C@@H]1O[C@H](CO)[C@H](O)[C@H](O)[C@H]1O)[C@H](O)[C@@H](O)CO [Lactitol],7,
O=C1O[C@H]([C@@H](O)CO)C([O-])=C1O.[Na+] [Sodium ascorbate],3.0,
O=C1O[C@H]([C@@H](O)CO)C(O)=C1O [Ascorbic acid],5.9,
OC[C@@H](O)[C@@H](O)[C@H](O)[C@@H](O)CO [Sorbitol],5.5,
OC[C@@H](O)[C@@H](O[C@H]1O[C@H](CO)[C@@H](O)[C@H](O)[C@H]1O)[C@H](O)[C@@H](O)CO [Maltitol],10,"Toxicity, allergenicity, irritancy [4]: nontoxic, nonallergenic and nonirritant; Relative humidity at which moisture is absorbed ([3]; 20° C.): ≥ 89%; Stability of water solution ([5]; pH 4-9 even at higher temperatures): very stable; Stability of water solution (time stable) ([5]; room temperature and pH 2-9): at least 2 years"
OC[C@H]1O[C@@H](O[C@H]2[C@H](O)[C@@H](O)C(O)O[C@@H]2CO)[C@H](O)[C@@H](O)[C@H]1O (stereo partly drawn) [Lactose],9.8,Bronchoconstriction after inhalation of dry powder (stable asthma patients): caused bronchoconstriction
